biological target: T1, G1 APOL1 (Homo sapiens, UniProt O14791, I384M/S342G); assay: Acute APOL1 Thallium Assay with inducible stable clones of HEK 293 cells; assay type: cell-based; details: Table 24, Compounds 287 to 465; read-out: Thallium Assay (IC50)
T1 construct: expressed in transfected cells
T1 sequence (O14791 28-398 S342G/I384M): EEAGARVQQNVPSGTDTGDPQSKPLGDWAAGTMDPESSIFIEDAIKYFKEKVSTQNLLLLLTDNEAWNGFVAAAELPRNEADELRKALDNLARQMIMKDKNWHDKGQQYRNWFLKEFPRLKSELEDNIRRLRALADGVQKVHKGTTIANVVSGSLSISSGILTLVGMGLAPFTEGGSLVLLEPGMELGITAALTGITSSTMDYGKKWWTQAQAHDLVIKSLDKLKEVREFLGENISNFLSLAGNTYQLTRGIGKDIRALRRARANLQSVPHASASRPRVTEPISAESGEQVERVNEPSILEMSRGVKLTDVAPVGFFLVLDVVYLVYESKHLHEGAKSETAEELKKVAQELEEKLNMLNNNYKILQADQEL
From the text: Acute APOL1 Thallium Assay with Inducible Stable Clones of HEK 293 Cells
Apolipoprotein L1 (APOL1) proteins form potassium-permeable cation pores in the plasma membrane. APOL1 risk variants (G1 and G2) induce greater potassium flux than G0 in HEK293 cells. This assay exploits the permeability of thallium (Tl+) through ligand-gated potassium channels. The dye produces a bright fluorescent signal upon binding to Tl+ conducted through potassium channels. The intensity of the Tl+ signal is proportional to the number of potassium channels in the open state. Therefore, it provides a functional indication of the potassium channel activities. During the initial dye-loading step, the Tl+ indicator dye as an acetoxymethyl (AM) ester enters the cells through passive diffusion. Cytoplasm esterases cleave the AM ester and relieve its active thallium-sensitive form. The cells are then stimulated with Tl+. The increase of fluorescence in the assay represents the influx of Tl+ into the cell specifically through the potassium channel (i.e. through APOL1 pores), providing a functional measurement of potassium channel/pore activity. The Thallium assay is conducted with cells expressing G1 APOL1.
APOL1 Cell Line (HEK T-Rex Stable Inducible Cell Line) • HEK T-Rex System • Tetracycline (Tet) inducible mammalian expression system. • Stably express the Tet repressor to regulate transcription. • Expression under the full-length CMV promoter. • APOL1 stable inducible cell line Clone used: G1 DC3.25
Tissue Culture Media • Cell Culture Medium • DMEM+10% FBS+P/S+5 μg/mL blasticidin+1 μg/mL puromycin. • 500 mL DMEM+55 mL FBS+5 mL P/S+280 μL blasticidin S HCl (10 mg/mL)+56 μL puromycin (10 mg/mL). • Cell Assay Medium • DMEM with 2% FBS+pen strep.
Instruments and Equipment • Nuaire cell culture hood, Cat. No. 540-600 • 37° C./5% CO2 incubator link to robotic arm, Liconic: STX110 • Molecular Devices FLIPR^Tetra High throughput cellular screening system, Cat. No. FT0324, Molecular Devices • ThermoFisher MultiDrop 384, Cat. No. 5840300 • Biotek Microfill, Cat. No. ASF1000A-4145 • BioRad TC10 cell counter, Cat. No. 145-0010 Assay Procedures
Cells Scaled Up from Frozen Vials • APOL1 G1 3.25 (HEK293 T-Rex) frozen vials: 5 million cells per vial • Step 1, Day 1: Defrost frozen vial into T-225. • Step 2, Day 5: (when 85% confluent): Split one T-225 at 3×10^6 cells per flask. • Step 3, Day 8: Splits cells to set up for the assay plates as described below.
T-Rex APOL1 HEK cells are split twice per week to keep the confluence state below 85% of the culture flask surface area. Cells can be kept until passage 25. • Cell Culture Medium • DMEM high glucose+10% FBS, +P/S, +5 μg/mL blasticidin, +1 μg/mL puromycin. • 500 mL DMEM, +55 mL FBS, +5 mL P/S, +280 μL blasicidin 10 mg/mL, +56 μL Puromycin 10 mg/mL. • Assay Media • Opti-MEM reduced serum medium from Invitrogen.
Preparation of Cell Assay Plates • Culture medium is removed from the x cm^2 T-flask by aspiration. • The cell monolayer is rinsed with PBS 1× at room temperature. PBS is removed by aspiration. • Cells are trypsinized using Trypsin. • The flasks are incubated at room temperature for 2-3 minutes. • Complete DMEM medium is then added. Cell suspension is then transferred to a 50 mL Falcon polypropylene tube. • Cells are then counted using a Biorad TC10 cell counter and the required amount of cells are centrifuged at 1200 RPM for 5 minutes. Required amount is 1.3×10^6 cells/mL APOL1 T-Rex HEK cells. • The pellet is suspended in the assay medium. • Using the MultiDrop, add 20 μL to each well (corresponds to 26000 cells total per well) of a 384-well black, transparent, flat bottom Poly-D coated plate. • Tetracycline as prepared in the following section is added to the cells before plating to induce APOL1 expression. • Plates are left at room temperature for 20 to 30 minutes before incubation at 37° C. and 5% CO2. […]

IC50, > 1000 nM:
O=C(N[C@H]1CCNC1=O)N[C@H]1C[C@H](c2c(-c3ccc(F)cc3)[nH]c3c(F)cc(F)cc32)C1 [Compound 297]
O=C(NC(CO)CO)N[C@H]1C[C@H](c2c(-c3ccc(F)cc3)[nH]c3c(F)cc(F)cc32)C1 [Compound 298]
C[C@H](O)CNC(=O)C1CC(Cc2c(-c3ccc(F)cc3)[nH]c3c(F)cc(F)cc23)C1 (some centres unmarked) [Compound 300]
O=C(NCC(O)C(F)F)C1CC(Cc2c(-c3ccc(F)cc3)[nH]c3c(F)cc(F)cc23)C1 (centres unmarked) [Compound 301]
CC(C)C[C@H](CO)NC(=O)C1CC(Cc2c(-c3ccc(F)cc3)[nH]c3c(F)cc(F)cc23)C1 (some centres unmarked) [Compound 302]
N#CC(CO)NC(=O)C1CC(Cc2c(-c3ccc(F)cc3)[nH]c3c(F)cc(F)cc23)C1 (centres unmarked) [Compound 303]
Cc1noc(CNC(=O)C2CC(Cc3c(-c4ccc(F)cc4)[nH]c4c(F)cc(F)cc34)C2)n1 (centres unmarked) [Compound 304]
O=C(N[C@H]1CCOC1=O)C1CC(Cc2c(-c3ccc(F)cc3)[nH]c3c(F)cc(F)cc23)C1 (some centres unmarked) [Compound 305]
O=C(N[C@@H](CO)C(F)(F)F)C1CC(Cc2c(-c3ccc(F)cc3)[nH]c3c(F)cc(F)cc23)C1 (some centres unmarked) [Compound 306]
C[C@@H](O)CNC(=O)C1CC(Cc2c(-c3ccc(F)cc3)[nH]c3c(F)cc(F)cc23)C1 (some centres unmarked) [Compound 307]
CC1(NC(=O)C2CC(Cc3c(-c4ccc(F)cc4)[nH]c4c(F)cc(F)cc34)C2)CCNC1=O (centres unmarked) [Compound 308]
O=C(NC1(CO)CC(F)(F)C1)C1CC(Cc2c(-c3ccc(F)cc3)[nH]c3c(F)cc(F)cc23)C1 (centres unmarked) [Compound 309]
O=C(Nc1c[nH][nH]c1=O)C1CC(Cc2c(-c3ccc(F)cc3)[nH]c3c(F)cc(F)cc23)C1 (centres unmarked) [Compound 310]
O=C(NC1(CCO)CC1)C1CC(Cc2c(-c3ccc(F)cc3)[nH]c3c(F)cc(F)cc23)C1 (centres unmarked) [Compound 311]
O=C(NCc1ccc[nH]c1=O)C1CC(Cc2c(-c3ccc(F)cc3)[nH]c3c(F)cc(F)cc23)C1 (centres unmarked) [Compound 313]
Cn1cnc(CNC(=O)C2CC(Cc3c(-c4ccc(F)cc4)[nH]c4c(F)cc(F)cc34)C2)c1 (centres unmarked) [Compound 314]
O=C(NCC1(O)CCCC1)C1CC(Cc2c(-c3ccc(F)cc3)[nH]c3c(F)cc(F)cc23)C1 (centres unmarked) [Compound 315]
CS(=O)(=O)CCNC(=O)C1CC(Cc2c(-c3ccc(F)cc3)[nH]c3c(F)cc(F)cc23)C1 (centres unmarked) [Compound 316]
O=C(NCc1ccoc1)C1CC(Cc2c(-c3ccc(F)cc3)[nH]c3c(F)cc(F)cc23)C1 (centres unmarked) [Compound 317]
CC(C)(O)CNC(=O)C1CC(Cc2c(-c3ccc(F)cc3)[nH]c3c(F)cc(F)cc23)C1 (centres unmarked) [Compound 318]
COCC1(CNC(=O)C2CC(Cc3c(-c4ccc(F)cc4)[nH]c4c(F)cc(F)cc34)C2)CC1 (centres unmarked) [Compound 319]
CC(=O)NCCNC(=O)C1CC(Cc2c(-c3ccc(F)cc3)[nH]c3c(F)cc(F)cc23)C1 (centres unmarked) [Compound 320]
O=C(NCC1CCCO1)C1CC(Cc2c(-c3ccc(F)cc3)[nH]c3c(F)cc(F)cc23)C1 (centres unmarked) [Compound 321]
O=C(NCC1(O)CCC1)C1CC(Cc2c(-c3ccc(F)cc3)[nH]c3c(F)cc(F)cc23)C1 (centres unmarked) [Compound 322]
O=C(NCC1(CO)CC1)C1CC(Cc2c(-c3ccc(F)cc3)[nH]c3c(F)cc(F)cc23)C1 (centres unmarked) [Compound 323]
CC(O)(CO)CNC(=O)C1CC(Cc2c(-c3ccc(F)cc3)[nH]c3c(F)cc(F)cc23)C1 (centres unmarked) [Compound 324]
CC1(O)CC(NC(=O)C2CC(Cc3c(-c4ccc(F)cc4)[nH]c4c(F)cc(F)cc34)C2)C1 (centres unmarked) [Compound 325]
O=C(NCC1CCOCC1)C1CC(Cc2c(-c3ccc(F)cc3)[nH]c3c(F)cc(F)cc23)C1 (centres unmarked) [Compound 326]
CC(C)(O)CCNC(=O)C1CC(Cc2c(-c3ccc(F)cc3)[nH]c3c(F)cc(F)cc23)C1 (centres unmarked) [Compound 327]
O=C(NCC1CC(F)(F)C1)C1CC(Cc2c(-c3ccc(F)cc3)[nH]c3c(F)cc(F)cc23)C1 (centres unmarked) [Compound 328]
C[C@H](NC(=O)C1CC(Cc2c(-c3ccc(F)cc3)[nH]c3c(F)cc(F)cc23)C1)C(C)(C)O (some centres unmarked) [Compound 329]
O=C(NCC1CCOC1)C1CC(Cc2c(-c3ccc(F)cc3)[nH]c3c(F)cc(F)cc23)C1 (centres unmarked) [Compound 330]
O=C(NCc1cnn(CC(F)(F)F)c1)C1CC(Cc2c(-c3ccc(F)cc3)[nH]c3c(F)cc(F)cc23)C1 (centres unmarked) [Compound 331]
Cc1c(CNC(=O)C2CC(Cc3c(-c4ccc(F)cc4)[nH]c4c(F)cc(F)cc34)C2)cnn1C (centres unmarked) [Compound 333]
Cc1nn(C)cc1CNC(=O)C1CC(Cc2c(-c3ccc(F)cc3)[nH]c3c(F)cc(F)cc23)C1 (centres unmarked) [Compound 335]
O=C1CC(CNC(=O)C2CC(Cc3c(-c4ccc(F)cc4)[nH]c4c(F)cc(F)cc34)C2)CN1 (centres unmarked) [Compound 336]
O=C(NCc1cnco1)C1CC(Cc2c(-c3ccc(F)cc3)[nH]c3c(F)cc(F)cc23)C1 (centres unmarked) [Compound 337]
Cn1ccnc1CNC(=O)C1CC(Cc2c(-c3ccc(F)cc3)[nH]c3c(F)cc(F)cc23)C1 (centres unmarked) [Compound 338]
O=C(Nc1ccc[nH]c1=O)C1CC(Cc2c(-c3ccc(F)cc3)[nH]c3c(F)cc(F)cc23)C1 (centres unmarked) [Compound 339]
Cc1cc(CNC(=O)C2CC(Cc3c(-c4ccc(F)cc4)[nH]c4c(F)cc(F)cc34)C2)nn1C (centres unmarked) [Compound 340]
O=C(NCc1cocn1)C1CC(Cc2c(-c3ccc(F)cc3)[nH]c3c(F)cc(F)cc23)C1 (centres unmarked) [Compound 341]
O=C(NCc1ncc[nH]1)C1CC(Cc2c(-c3ccc(F)cc3)[nH]c3c(F)cc(F)cc23)C1 (centres unmarked) [Compound 342]
COC1(CNC(=O)C2CC(Cc3c(-c4ccc(F)cc4)[nH]c4c(F)cc(F)cc34)C2)CCOC1 (centres unmarked) [Compound 343]
Cn1cncc1CNC(=O)C1CC(Cc2c(-c3ccc(F)cc3)[nH]c3c(F)cc(F)cc23)C1 (centres unmarked) [Compound 344]
O=C(NCc1ccc(=O)[nH]c1)C1CC(Cc2c(-c3ccc(F)cc3)[nH]c3c(F)cc(F)cc23)C1 (centres unmarked) [Compound 346]
CC(C)C[C@@H](CO)NC(=O)C1CC(Cc2c(-c3ccc(F)cc3)[nH]c3c(F)cc(F)cc23)C1 (some centres unmarked) [Compound 347]

IC50, 250 to 1000 nM:
O=C(NCCO)C1CC(Cc2c(-c3ccc(F)cc3)[nH]c3c(F)cc(F)cc23)C1 (centres unmarked) [Compound 299, 3-[[5,7-difluoro-2-(4-fluorophenyl)-1H-indol-3-yl]methyl]-N-(2-hydroxyethyl)cyclobutane-1-carboxamide]

— patent publication US12116343B2, “Inhibitors of APOL1 and methods of using same” (Vertex Pharmaceuticals Incorporated, priority 2020, dated 2024)
